Where “and” joins values, the source holds several entries; their conditions need not be identical. Equal values may be shown once. Inconclusive results and toxic doses are left out. The calls were made as follows: active = survival T/C of 150% or more; inactive = T/C below 125% in these data.
Test system: CD2F1 mice, L1210 leukemia ip, survival T/C
Assay: NCI In Vivo Anticancer Drug Screen. Data for tumor model L1210 Leukemia (intraperitoneal) in CD2F1 (CDF1) mice
Details: endpoint: mean survival time, higher = longer survival
In short: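 Activity against a transplanted murine tumor was judged by comparing the compound group with a vehicle group. The outcome in the treated animals was divided by that in the controls.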

[1] = dose: 100.0 mg/kg/injection, schedule: Q04DX003 (ip), vehicle: saline
[2] = dose: 200.0 mg/kg/injection, schedule: Q04DX003 (ip), vehicle: saline
[3] = dose: 400.0 mg/kg/injection, schedule: Q04DX003 (ip), vehicle: saline
[4] = dose: 100.0 mg/kg/injection, schedule: Q04DX003 (ip), vehicle: saline with Tween-80
[5] = dose: 200.0 mg/kg/injection, schedule: Q04DX003 (ip), vehicle: saline with Tween-80
[6] = dose: 400.0 mg/kg/injection, schedule: Q04DX003 (ip), vehicle: saline with Tween-80
[7] = dose: 200.0 mg/kg/injection, schedule: Q01DX009 (ip), vehicle: saline with Tween-80
[8] = dose: 400.0 mg/kg/injection, schedule: Q01DX009 (ip), vehicle: saline with Tween-80
[9] = dose: 100.0 mg/kg/injection, schedule: Q01DX009 (ip), vehicle: saline with Tween-80

Measured: T/C

CC(C)OC(=O)C12Oc3ccc(-c4ccc5c(c4O)C(O)=C4C(=O)CC(C)C(O)C4(C(=O)OC(C)C)O5)c(O)c3C(O)=C1C(=O)CC(C)C2O (stereo unspecified)
inactive: dose: 1.25 mg/kg/injection, schedule: Q01DX009 (ip), vehicle: saline with Tween-80 102 % of control | dose: 2.5 mg/kg/injection, schedule: Q01DX009 (ip), vehicle: saline with Tween-80 95 % of control | dose: 5.0 mg/kg/injection, schedule: Q01DX009 (ip), vehicle: saline with Tween-80 98 % of control

CCCCCCCCCCOCCCCCCCCCC
inactive: dose: 100.0 mg/kg/injection, schedule: Q01DX009 (ip), vehicle: saline 95 % of control | [1] 94 % of control | dose: 200.0 mg/kg/injection, schedule: Q01DX009 (ip), vehicle: saline 98 % of control | [2] 101 % of control | dose: 400.0 mg/kg/injection, schedule: Q01DX009 (ip), vehicle: saline 97 % of control | [3] 94 % of control

C=CCN(CC=C)Cc1cccc(N(CCCl)CCCl)c1 (tested in a mixture with another compound)
inactive: dose: 50.0 mg/kg/injection, schedule: Q01DX009 (ip), vehicle: Klucel (hydroxypropylcellulose) (HPC) 109 % of control | dose: 100.0 mg/kg/injection, schedule: Q01DX009 (ip), vehicle: Klucel (hydroxypropylcellulose) (HPC) 114 % of control

Nc1ccc2cc(S(=O)(=O)O)cc(O)c2c1
inactive: [4] 98 % of control | [5] 102 % of control | [6] 98 % of control

O=C(Nc1nncs1)c1ccncc1
inactive: dose: 12.5 mg/kg/injection, schedule: Q01DX009 (ip), vehicle: saline with Tween-80 95 % of control and 112 % of control | dose: 25.0 mg/kg/injection, schedule: Q01DX009 (ip), vehicle: saline with Tween-80 115 % of control and 92 % of control | dose: 50.0 mg/kg/injection, schedule: Q01DX009 (ip), vehicle: saline with Tween-80 103 % of control | [7] 123 % of control and 94 % of control | [8] 110 % of control

CC(=O)NC(C)C(C)(C)O (stereo unspecified)
inactive: [1] 91 % of control | [2] 101 % of control | [3] 95 % of control

O=P(O)(O)OCC1OC(n2cnc3c(NCc4ccccc4)ncnc32)C(O)C1O (stereo unspecified)
inactive: dose: 12.5 mg/kg/injection, schedule: Q01DX005 (ip), vehicle: other 104 % of control | dose: 25.0 mg/kg/injection, schedule: Q01DX005 (ip), vehicle: other 100 % of control | dose: 50.0 mg/kg/injection, schedule: Q01DX005 (ip), vehicle: other 104 % of control | dose: 100.0 mg/kg/injection, schedule: Q01DX005 (ip), vehicle: other 117 % of control

CC(C)(CCl)c1ccc(C(C)(C)CCl)cc1
inactive: [4] 100 % of control | [5] 91 % of control | [6] 100 % of control

O=C(NC(=S)Nc1cc(Cl)ccc1O)c1cccc(Br)c1
inactive: dose: 100.0 mg/kg/injection, schedule: Q01DX001 (ip), vehicle: saline with Tween-80 86 % of control and 89 % of control | [9] 96 % of control and 101 % of control | dose: 100.0 mg/kg/injection, schedule: Q04DX002 (ip), vehicle: saline with Tween-80 89 % of control and 103 % of control | [4] 91 % of control | dose: 200.0 mg/kg/injection, schedule: Q01DX001 (ip), vehicle: saline with Tween-80 86 % of control | [7] 97 % of control and 98 % of control | dose: 200.0 mg/kg/injection, schedule: Q04DX002 (ip), vehicle: saline with Tween-80 89 % of control and 100 % of control | [5] 96 % of control | dose: 400.0 mg/kg/injection, schedule: Q01DX001 (ip), vehicle: saline with Tween-80 86 % of control | [8] 116 % of control and 101 % of control | dose: 400.0 mg/kg/injection, schedule: Q04DX002 (ip), vehicle: saline with Tween-80 94 % of control and 95 % of control | [6] 95 % of control

CNC(=O)/C(=C(\[O-])NC)[S+](C)(C)=O
inactive: [4] 101 % of control | [5] 100 % of control | [6] 100 % of control

COc1ccc2c(c1)c1c(C)c3cnccc3c(C)c1n2CCO
inactive: [4] 112 % of control | [5] 115 % of control

CC[C@H](C)c1occ2c(O)c(C(=O)O)c(=O)cc-2c1C
inactive: dose: 100.0 mg/kg/injection, schedule: Q01DX001 (ip), vehicle: saline 98 % of control | dose: 200.0 mg/kg/injection, schedule: Q01DX001 (ip), vehicle: saline 101 % of control

C=C(C)C1CCC2(C=O)CCC3(C)C(CCC4C5(C)CCC(OC6CCCCO6)C(C)(C)C5CCC43C)C12 (stereo unspecified)
inactive: dose: 6.25 mg/kg/injection, schedule: Q04DX002 (ip), vehicle: saline with Tween-80 111 % of control | dose: 12.5 mg/kg/injection, schedule: Q04DX002 (ip), vehicle: saline with Tween-80 100 % of control | dose: 25.0 mg/kg/injection, schedule: Q04DX002 (ip), vehicle: saline with Tween-80 100 % of control

C/C=C1\CN2CCC34c5ccccc5N5C(=O)CCC(C1CC23)C54 (stereo unspecified)
inactive: dose: 5.0 mg/kg/injection, schedule: Q01DX001 (ip), vehicle: saline 98 % of control | dose: 10.0 mg/kg/injection, schedule: Q01DX001 (ip), vehicle: saline 98 % of control | dose: 20.0 mg/kg/injection, schedule: Q01DX001 (ip), vehicle: saline 98 % of control | dose: 40.0 mg/kg/injection, schedule: Q01DX001 (ip), vehicle: saline 100 % of control

COCCOCCOCCOCCOCCOCCOCCOC(=O)Nc1ccc(C)c(NC(=O)OCCOCCOCCOCCOCCOCCOCCOC)c1
inactive: dose: 100.0 mg/kg/injection, schedule: Q01DX009 (ip), vehicle: saline sonified 96 % of control | [1] 96 % of control | dose: 200.0 mg/kg/injection, schedule: Q01DX009 (ip), vehicle: saline sonified 96 % of control | [2] 100 % of control | dose: 400.0 mg/kg/injection, schedule: Q01DX009 (ip), vehicle: saline sonified 93 % of control | [3] 100 % of control

N#Cc1ccc(NCCO)cc1
inactive: [4] 89 % of control | [5] 101 % of control | [6] 91 % of control

CCCCCCCCCCC(=O)CCCCC
inactive: dose: 100.0 mg/kg/injection, schedule: Q01DX009 (ip), vehicle: other 101 % of control | dose: 100.0 mg/kg/injection, schedule: Q04DX003 (ip), vehicle: other 105 % of control | dose: 200.0 mg/kg/injection, schedule: Q01DX009 (ip), vehicle: other 107 % of control | dose: 200.0 mg/kg/injection, schedule: Q04DX003 (ip), vehicle: other 100 % of control | dose: 400.0 mg/kg/injection, schedule: Q01DX009 (ip), vehicle: other 104 % of control | dose: 400.0 mg/kg/injection, schedule: Q04DX003 (ip), vehicle: other 94 % of control

CC(=O)c1c(C)cc2cccc(OC3OC(CO)C(O)C(O)C3O)c2c1O (stereo unspecified) (tested in a mixture with another compound)
inactive: [1] 103 % of control | [2] 104 % of control | [3] 107 % of control

CC(C)(C)NC[Si](C)(C)C
inactive: dose: 25.0 mg/kg/injection, schedule: Q01DX009 (ip), vehicle: saline 94 % of control | dose: 50.0 mg/kg/injection, schedule: Q01DX009 (ip), vehicle: saline 101 % of control

CC1(C)CC(O)(C(Cl)c2ccccc2)C(=O)c2ccccc21 (stereo unspecified)
inactive: dose: 25.0 mg/kg/injection, schedule: Q01DX009 (ip), vehicle: water 103 % of control | dose: 50.0 mg/kg/injection, schedule: Q01DX009 (ip), vehicle: water 104 % of control | dose: 100.0 mg/kg/injection, schedule: Q01DX009 (ip), vehicle: water 98 % of control | dose: 100.0 mg/kg/injection, schedule: Q04DX003 (ip), vehicle: acetone 98 % of control | dose: 200.0 mg/kg/injection, schedule: Q01DX009 (ip), vehicle: water 109 % of control | dose: 200.0 mg/kg/injection, schedule: Q04DX003 (ip), vehicle: acetone 95 % of control | dose: 400.0 mg/kg/injection, schedule: Q01DX009 (ip), vehicle: water 107 % of control | dose: 400.0 mg/kg/injection, schedule: Q04DX003 (ip), vehicle: acetone 95 % of control

Cc1ccc(S(=O)(=O)c2ccc(F)cc2)cc1
inactive: [9] 100 % of control | [7] 102 % of control | [8] 96 % of control
